Results from patent US12630523B2, “Isoquinoline derivatives for use as antiviral and antitumour agents” (priority 2021, dated 2026).

Assays:
[1] = system: SARS-CoV-2 isolate BetaCov/Belgium/GHB-03021/2020; test: microbe, parasite or virus in culture; format: cell-based; conditions: 1.25 μM (non-toxic compound concentration), n4; for inhibition at 1.25 µM: Severe acute respiratory syndrome coronavirus 2
Plk3 = Plk3 (Homo sapiens, UniProt Q9H4B4); conditions: cited from earlier work
[2] = Pharmacokinetics of VSP034 and VSP035 after oral administration of a liposomal formulation; format: in vivo, female Sprague-Dawley rats; conditions: for AUC(0-inf) / CL/F / Cmax / MRT inf / Tmax / Vd/F / half-life: female, Sprague-Dawley, rat, in vivo, po, 100 mg/kg; for AUC(0-inf): AUC0-inf; for MRT inf: MRT0-inf; for Vd/F: Vz/F
Protocol: The pharmacokinetic parameters of VSP034 and VSP035 encapsulated as liposomal formulation were assessed after the administration of a single 100 mg/kg dose by oral gavage to 6 female Sprague-Dawley rats weighting 250 grams (+25 g). The animals were randomized into two experimental groups (Groups 1 and 2), each composed of 3 rats. Rats belonging to group 1 were administered with VSP034 and rats belonging to group 2 were administered with VSP035. Blood was collected at baseline and 15 min, 30 min, 1, 2, 4, 6, 8, and 24 hours after the oral gavage. The rats were sacrificed 24 hours after the dosing. Blood was collected at each timepoint from the caudal vein, with the exception of the last collection (24 hours), which was performed by intracardiac puncture at the moment of sacrifice under isoflurane anesthesia. The animals were weighted immediately before the dosing to assess the proper dose and carefully monitored during the experiment. They were kept in standard housing conditions, meeting the legal requirements for the correct housing of rodents for a period not exceeding the maximum experimental endpoints. Ad libitum access to water and food was allowed. […] Humane endpoints have not been reached. The pharmacokinetic analysis was performed using Microsoft Excel plug-in PK Solver. Pharmacokinetic parameters of two compounds are compared with the software GraphPad Prism ver. 8.0 by Student's t test for unpaired data. A p value <0.05 is considered statistically significant.
Analytical method: Compound analysis was performed following the bioanalytical method as in Test 13. In this study, carbamazepine was used as an internal standard.
Pharmacokinetic analysis: A pharmacokinetic analysis of VSP034 and VSP035 was performed using the Excel plug-in 2.0 PK Solver. The results have been fitted according to a non-compartmental modelling following extravascular administration. Concentration-vs-time curves for VSP034 and VSP035.
The main pharmacokinetic parameters (half-life, t1/2; time to maximum plasma concentration, Tmax; maximum plasma concentration, Cmax, AUC Extrapolated to Infinity, AUC0-inf; mean residence time, MRT; Apparent Volume of Distribution During Terminal Phase, Vz/F; and apparent oral clearance, CL/F) were calculated from the coefficients and exponents of the best-fits by using standard formulae.

[3] = system: CaSki (ATCC CRM-CRL-1550); test: Monolayer assay using Sulphorhodamine B (SRB) staining, CaSki; format: cell-based; conditions: Homo sapiens, Ca-Ski, read-out: EC50 mean [nM]
Protocol: Various cell culture cells grown as monolayers are harvested from exponential growing cultures after treatment with various OC compounds at different concentrations. For this depending on the cell line, 10.000 to 30.000 cells were plated in 96-well flat-bottom microtiter plates. After a 24 h recovery period to allow cells to resume exponential growth, supernatants are discarded and 100 μl of culture medium (eight control wells/plate) or culture medium with the test compound are added by a liquid handling robotic system (Microlab® Starlet, Hamilton) and treatment continued for 72 hrs. Compounds are applied at 9 concentrations and eight wells/concentration). At least three independent experiments are performed. For SRB staining, cells are fixed with SRB01 (Tab. 5) for 1 h at 4° C. (final concentration of TCA=10%) washed with a plate washer (Hydroflex, Tecan©) for five times with H2O; and stained with 100 μl of SRB02 at room temperature for 10 min following 4 washes in SRB03 and finally 100 μl of developer solution SRB04 for 5 minutes with shaking. Optical density is assessed using a plate-reader (Sunrise, Tecan©) at 540 nm.
Concentrations required for half maximal response of the compound for cell growth inhibition (EC50) is calculated by non-linear regression (log[conc. of inhibitor] versus response (% T/C)) using the analysis software GraphPad Prism®, Prism 5 for windows, version 5.01 (GraphPad Software Inc., CA).

[4] = system: patient derived SARS-2 Coronavirus (COVID19); test: Inhibition of Sars-CoV2 replication by RNA qPCR analysis in Vero E6 cells; format: cell-based, SARS-CoV-2; conditions: 7.5 μM, supernatants 3 days after infection, n3
Protocol: Vero E6 cells were pre-incubated with the compounds at a concentration of 7.5 μM. The cells were infected with a patient derived SARS-2 Coronavirus (COVID19). Cellular supernatants were collected 3 days after infection and centrifuged at 2000 rpm for 5 min to remove detached cells. Viral RNAs were extracted using a MagNA Pure 24 system (Roche, Germany). SARS-CoV-2 RNA genomes were quantified with the TIB MOLBIOL LightMix Assay SARS-CoV-2 RdRP RTqPCR assay kit with RNA Process Control PCR Kit (Roche). The PCR reaction setup was performed using a BRAND LHS laboratory robot to ensure quality. The amplification was performed with a LightCycler 480 II (Roche). Method used in FIG. 10.
SARV-CoV-2 antiviral activity by of VSP034 and VSP035 (n3; number of repeat of the assay at each condition). The results are shown in for DMSO (1), 7.5 μM VSP034 (2) and 7.5 μM VSP035 (3), y axis logarithmic scale. […] (FIG. 9)

[5] = system: p38, JNK1, ERK1/2, PKC, or Src-like kinases; conditions: cited from earlier work
[6] = system: cell signaling molecules (4E-BP1, p70 S6 kinase, Akt, PTPN14, p53, PD-L1); test: Western blot of cell signaling molecules in CaSki cells; conditions: CaSki, 6 h; order 10 μM VSP035, Torin 1, Torin 2, rapamycin, 5 μM VSP035, CGP 57380

Sequence of Plk3 (Q9H4B4 whole entry, species assumed): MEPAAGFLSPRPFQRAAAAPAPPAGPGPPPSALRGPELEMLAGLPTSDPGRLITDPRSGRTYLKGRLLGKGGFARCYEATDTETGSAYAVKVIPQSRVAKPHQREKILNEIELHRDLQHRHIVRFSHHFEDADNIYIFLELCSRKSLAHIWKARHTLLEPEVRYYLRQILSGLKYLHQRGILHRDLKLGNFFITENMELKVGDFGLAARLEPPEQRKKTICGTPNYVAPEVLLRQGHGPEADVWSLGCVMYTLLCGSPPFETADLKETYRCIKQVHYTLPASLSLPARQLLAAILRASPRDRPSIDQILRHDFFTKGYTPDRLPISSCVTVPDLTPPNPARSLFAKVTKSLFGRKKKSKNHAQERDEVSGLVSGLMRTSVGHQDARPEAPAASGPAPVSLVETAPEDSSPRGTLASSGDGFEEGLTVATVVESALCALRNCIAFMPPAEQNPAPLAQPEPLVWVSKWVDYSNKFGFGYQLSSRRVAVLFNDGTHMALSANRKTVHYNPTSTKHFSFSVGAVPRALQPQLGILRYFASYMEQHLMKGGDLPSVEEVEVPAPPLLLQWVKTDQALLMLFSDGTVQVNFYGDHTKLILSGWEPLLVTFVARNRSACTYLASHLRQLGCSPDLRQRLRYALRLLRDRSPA

COc1cc(OC)c(/C=C/S(=O)(=O)Cc2ccc(OC)c(NCC(=O)O)c2)c(OC)c1 [ON-01910.Na, reference compound]
inhibition at 1.25 µM [1]: 51.4% | activity to Plk3 (Plk3): against Plk2 and no activity to Plk3.

CN1CCC(CN2C(=O)c3ccccc3[C@@H](C(=O)Nc3cccc(N4CCN(C)CC4)c3)[C@@H]2c2ccc(C(F)(F)F)cc2)CC1 [VSP034, (3R,4R)-N-[3-(4-methylpiperazin-1-yl)phenyl]-2-[(1-methylpiperidin-4-yl)methyl]-1-oxo-3-[4-(trifluoromethyl)phenyl]-1,2,3,4-tetrahydroisoquinoline-4-carboxamide]
AUC(0-inf) ([2]; Mean): 529 ng·h/mL | AUC(0-inf) ([2]; Median): 613 ng·h/mL | CL/F ([2]; Mean): 3.42 mL/min/kg | CL/F ([2]; Median): 2.72 mL/min/kg | Cmax ([2]; Mean): 89 ng/mL | Cmax ([2]; Median): 87.9 ng/mL | MRT inf ([2]; Mean): 6.72 h | MRT inf ([2]; Median): 6.77 h | Tmax ([2]; Mean): 1.17 h | Tmax ([2]; Median): 1 h | Vd/F ([2]; Mean): 1.29 L/kg | Vd/F ([2]; Median): 0.994 L/kg | half-life ([2]; t1/2, Mean): 260 min | half-life ([2]; t1/2, Median): 253 min | condition of the rats after administration of the liposomal formulation ([2]; single 100 mg/kg oral gavage, observed 24 hours): did not show any sign of suffering or abnormal behavior | EC50 [3]: 3590 nM | reduction of virus load as determined by the PCR assay [4]: one order of magnitude | inhibition at 1.25 µM [1]: 45.2%

Nc1ncnc2n[nH]c(Nc3ccc(F)cc3)c12 [CGP57380, reference compound]
% Inhibition [1]: 17.71% | inhibitory activity against p38, JNK1, ERK1/2, PKC, or Src-like kinases [5]: μM, but has no inhibitory activity against | Phosphorylation of 4E-BP1 on Ser65 and the p70S6 kinase on Thr389 [6]: inhibited or strongly reduced
